{"source": "patent US20250179031A1", "about": "“PROTEASOME ENHANCERS AND USES THEREOF” (Board of Trustees of Michigan State University, priority 2022, published 2025)", "assay_type_in_all_cases": "biochemical", "key": {"human 20S proteasome": {"tested_on": "T1, human 20S proteasome", "T1 construct": "purchased Boston Biochem, Inc. (Cambridge, MA)", "assay": "Fluorogenic peptide degradation 20S proteasome activity assay, combination of CT-L, T-L and Casp-L substrates", "experimental": "(§1) Activity assays were carried out in a 100 μL reaction volume. Different concentrations (40-1.25 μM) of test compounds (1 μL) were added to a black flat/clear bottom 96-well plate containing 2 nM of human constitutive 20S proteasome ([…]), in 50 mM Tris-HCl at pH 7.8, 100 mM NaCl and allowed to incubate for 15 min at 37° C. Fluorogenic substrates (5 μL) were then added and the enzymatic activity measured at 37° C. on a SpectraMax M5e spectrometer by measuring the change in fluorescence unit per minute for 1 hour at 380-460 nm. The fluorescence units for the vehicle control were set at a 100%, and the ratio of drug-treated sample set to that of vehicle control was used to calculate the fold change in enzymatic activity. The fluorogenic substrates used were one of the following: Suc-LLVY-AMC (CT-L activity, 20 μM), Z-LLE-AMC (Casp-L activity, 20 μM), Boc-LRR-AMC (Trp-L activity, 40 μM) or a combination of the three substrates each at 6.67 μM. Results were analysed and plotted using GraphPad Prism 7.\n(§2) Screening of this library of dihydroquinazolines was performed in two stages. In the first stage, each compound was screened at three concentrations (3, 10 and 30 μM) to select lead agents. Secondly, lead agents were further analyzed using full concentration responses (6-point titration ranging from 1.25 μM-40 μM) for each of the three proteolytic activities of the 20S proteasome and a combination thereof. The proteolytic activity of the 20S proteasome can be monitored in vitro by measuring the cleavage of fluorogenic peptide substrates for the different catalytic sites as an increase in 7-amino-4-methycoumarin (AMC) fluorescence overtime. A combination of chymotrypsin-like (CT-L, Suc-LLVY-AMC), tryptic-like (T-L, Boc-LRR-AMC) and caspase-like (Casp-L, Z-LLE-AMC) peptide substrates were used in equal amounts to screen compounds for overall 20S activity.\nPure human 20S proteasome was pre-treated with 3, 10 or 30 μM of one of the analogues or DMSO (vehicle control) for 15 min at 37° C. To each sample was then added a mixture of the three substrates (13.3 μM each). The release of AMC was monitored as fluorescence overtime for 1 h and the resulting 20S activity changes were determined by comparing to the untreated 20S and calculating the fold-increase in activity for each analogue at a given concentration (Table 1, 30 μM).\n(§3) After analyzing the results in Table 1, three of the most promising analogues were selected for further studies into their 20S activity. Compounds 10, 2 and 18 were selected to be carried forward based on their fold increase and the highest Max-Fold activities. […] These compounds were then tested to obtain a full concentration—response (FIG. 1) of their activities towards the 20S proteasome using each of the three substrates for the three catalytic sites individually and the combination of the three substrates. This was done to ensure that each of the selected compounds activate the 20S proteasome at all three catalytic sites, which is critical for effective IDP degradation, as these proteins are likely to contain multiple cleavage sites for each.\n(§4) Using the data in FIG. 1, the concentration at which 20S activity was doubled (AC200) was calculated for each compound using each substrate and the combination of the three substrates (Table 2)."}, "[1]": {"tested_on": "T2, human 20S proteasome, chymotrypsin-like (CT-L) site", "T2 construct": "purchased Boston Biochem, Inc. (Cambridge, MA)", "assay": "Fluorogenic peptide degradation 20S proteasome activity assay, Suc-LLVY-AMC (CT-L activity)", "details": "Suc-LLVY-AMC substrate", "experimental": "as §1, §2, §3, §4"}, "[2]": {"tested_on": "T3, human 20S proteasome, caspase-like (Casp-L) site", "T3 construct": "purchased Boston Biochem, Inc. (Cambridge, MA)", "assay": "Fluorogenic peptide degradation 20S proteasome activity assay, Z-LLE-AMC (Casp-L activity)", "details": "Z-LLE-AMC substrate", "experimental": "as §1, §2, §3, §4"}, "[3]": {"tested_on": "T4, human 20S proteasome, tryptic-like (T-L) site", "T4 construct": "purchased Boston Biochem, Inc. (Cambridge, MA)", "assay": "Fluorogenic peptide degradation 20S proteasome activity assay, Boc-LRR-AMC (T-L activity)", "details": "Boc-LRR-AMC substrate", "experimental": "as §1, §2, §3, §4"}, "[4]": {"tested_on": "T5, human 20S proteasome (α-synuclein substrate)", "T5 construct": "purchased Boston Biochem, Inc. (Cambridge, MA)", "assay": "In vitro purified α-synuclein degradation assay (silver stain)", "details": "pure human α-synuclein, 4 h at 37° C., silver stain quantified", "experimental": "Representative silver stain of these alpha-synuclein digestions and quantification of three trials. 20S proteasome subunits were used as a loading control in the quantification (right). […] Error bars denote standard deviation. Ordinary one-way ANOVA statistical analysis was used to determine statistical significance (ns=not significant, *p<0.05, **p<0.01, […], and ****p<0.00001).\nIn vitro purified α-synuclein degradation assay. Digestion of α-synuclein was carried out in a 50 μL reaction volume made of 50 mM Tris and 100 mM NaCl at pH 7.8; 0.5 μM purified α-synuclein and 6.7 nM purified human 20S proteasome. Briefly, 20S proteasome was diluted to 7.58 nM in the reaction buffer. Test compounds or vehicle (1 μL of 50× stock or DMSO) were added to 44 μL of 7.58 nM 20S and incubated at 37° C. for 20 min. 5 μL of 5 μM α-synuclein substrate was then added to the reaction mixture and incubated at 37° C. for 4 hours. The reactions were quenched with concentrated sodium dodecyl sulfate (SDS) loading buffer. After boiling for 10 min, samples were resolved on a 4-20% Tris-glycine SDS-PAGE gel. The gels were then stained using a Pierce Silver Stain Kit (Thermo Scientific, Rockford IL) and the provided procedure. Silver stained gels were then quantified using ImageJ. […]"}, "[5]": {"details": "combination of the three substrates, 1.25-40 μM titration"}}}
{"compound": "COc1ccc2c(c1)N=C(c1ccccc1)N(C1CCN(Cc3ccccc3)CC1)C2c1ccccc1", "note": "(stereo not drawn) [Compound 18]", "values": [{"measurement": "Fold increase over vehicle (30 μM), enhancement of 20S activity", "setting": "human 20S proteasome; 30 μM compound, mixture of the three substrates, 15 min pre-treatment at 37° C., 1 h read", "result": 7, "unit": "fold"}, {"measurement": "concentration at which 20S activity was doubled in the combination (in words)", "setting": "human 20S proteasome; combination of the three substrates", "result": "low μM concentrations"}, {"measurement": "AC200 (concentration at which 20S activity was doubled), Combo", "setting": "human 20S proteasome; [5]", "result": 1.3, "unit": "µM"}, {"measurement": "Max Fold, Combo", "setting": "human 20S proteasome; [5]", "result": 5.5, "unit": "fold"}, {"measurement": "AC200, CT-L", "setting": "[1]", "result": 10.5, "unit": "µM"}, {"measurement": "Max Fold, CT-L", "setting": "[1]", "result": 3.8, "unit": "fold"}, {"measurement": "AC200, Casp-L", "setting": "[2]", "result": 2.8, "unit": "µM"}, {"measurement": "Max Fold, Casp-L", "setting": "[2]", "result": 10.6, "unit": "fold"}, {"measurement": "AC200, T-L", "setting": "[3]", "result": 1.7, "unit": "µM"}, {"measurement": "Max Fold, T-L", "setting": "[3]", "result": 8.7, "unit": "fold"}, {"measurement": "20S-mediated degradation of α-synuclein (in words)", "setting": "[4]", "result": "effectively enhanced the rate of degradation of α-synuclein by the 20S in vitro in a concentration dependent manner"}]}
{"compound": "CC(C)C[C@H](NC(=O)[C@H](Cc1ccccc1)NC(=O)c1cnccn1)B(O)O", "note": "[bortezomib, reference compound]", "values": [{"measurement": "20S-mediated degradation of α-synuclein (in words)", "setting": "[4]", "result": "prevented α-synuclein degradation"}]}
